From US20070134261A1, “Effectors of innate immunity” (priority 2001, published 2007) come the findings set out here.

The test system of assay [1] is A549 human epithelial cells. Briefly: LPS induced IL-8 production in A549 cells (ELISA). It counts as cell-based. As to conditions: 100 ng/ml E. coli O111:B4 LPS, 24 hours. A general note: ELISA stands for enzyme-linked immunosorbent assay.
In assay [2] the test system is THP-1 cells (human monocytes). Briefly: Induction of IL-8 in undifferentiated THP-1 cells. It counts as cell-based. The method, then: (§1) The murine macrophage cell line RAW 264.7, THP-1 cells (human monocytes), a human epithelial cell line (A549), human bronchial epithelial cells (16HBEo14), and whole human blood were used. HBE cells were grown in MEM with Earle's. THP-1 cells were grown and maintained in RPMI 1640 medium. The RAW and A549 cell lines were maintained in DMEM supplemented with 10% fetal calf serum. […] DMEM was aspirated from cells grown overnight and replaced with fresh medium. After incubation of the cells with peptide, the release of chemokines into the culture supernatant was determined by ELISA (R&D Systems, Minneapolis, Minn.).

For the next assay, the system named is HBE cells. Briefly: Phosphorylation of MAP kinases (Western blot) in HBE cells. It counts as cell-based, human. As to the method: (§2) The cells were seeded at 2.5×10^5−5×10^5 cells/ml and left overnight. They were washed once in media, serum starved in the morning (serum free media—4 hrs). The media was removed and replaced with PBS, then sat at 37° C. for 15 minutes and then brought to room temp for 15 minutes. Peptide was added (concentrations 0.1 μg/ml−50 μg/ml) or H2O and incubated 10 min. The PBS was very quickly removed and replaced with ice-cold radioimmunoprecipitation (RIPA) buffer with inhibitors (NaF, B-glycerophosphate, MOL, Vanadate, PMSF, Leupeptin Aprotinin). The plates were shaken on ice for 10-15 min or until the cells were lysed and the lysates collected. The procedure for THP-1 cells was slightly different; more cells (2×10^6) were used. They were serum starved overnight, and to stop the reaction 1 ml of ice-cold PBS was added then they sat on ice 5-10 min, were spun down then resuspended in RIPA. Protein concentrations were determined using a protein assay (Pierce, Rockford, Ill.). Cell lysates (20 μg of protein) were separated by SDS-PAGE and transferred to nitrocellulose filters. […] The freshly harvested cells were consistently >99% viable as assessed by their ability to exclude trypan blue. […] Protein content was analyzed and approximately 30 μg of each sample was loaded in a 12% SDS-PAGE gel. […] Phosphorylation was detected with phosphorylation-specific antibodies.
For orientation: In western blotting, separated proteins are transferred to a membrane and probed.

In assay [3] the test system is mouse macrophage RAW cell line. Briefly: Phosphorylation of MAP kinases (Western blot) in RAW cell line. It counts as cell-based. As to the method: as §2
Assay [4] relates to human bronchial epithelial cells (16HBEo14). Briefly: Induction of IL-8 in HBE cells. It counts as cell-based. As to conditions: for IL-8: 8 h. As to the method: as §1

Regarding `CC[C@H](C)[C@H](N)C(=O)N[C@@H](CC(C)C)C(=O)N1CCC[C@H]1C(=O)N[C@@H](Cc1c[nH]c2ccccc12)C(=O)N[C@@H](CCCCN)C(=O)N[C@@H](Cc1c[nH]c2ccccc12)C(=O)N1CCC[C@H]1C(=O)N[C@@H](Cc1c[nH]c2ccccc12)C(=O)N[C@@H](Cc1c[nH]c2ccccc12)C(=O)N1CCC[C@H]1C(=O)N[C@@H](Cc1c[nH]c2ccccc12)C(=O)N[C@@H](CCCNC(=N)N)C(=O)N[C@@H](CCCNC(=N)N)C(N)=O` [SEQ ID NO: 2], the “Inhibition of IL-8” value was found to be 6.8 ± 9.6% in assay [1] (SEQ ID NO: 2 0.1 μg/ml); 12.8 ± 24.5% in assay [1] (SEQ ID NO: 2 1 μg/ml); 29.0 ± 26.0% in assay [1] (SEQ ID NO: 2 10 μg/ml); 39.8 ± 1.6% in assay [1] (SEQ ID NO: 2 50 μg/ml); 45.0 ± 3.5% in assay [1] (SEQ ID NO: 2 100 μg/ml). For the same compound, the “induction of IL-8” value in assay [2] and in assay [4] was “significantly induced IL-8” throughout. In addition, the “phosphorylation of p38 and ERK1/2” value (in the assay on HBE cells; in assay [3]) was “dose dependent phosphorylation” each time. Further, the IL-8 in assay [4] (peptide 0.1 μg/ml) stood at 670 ± 155 pg/mL; in assay [4] (peptide 1 μg/ml) it was 712 ± 205 pg/mL; in assay [4] (peptide 10 μg/ml) it was 941 ± 15 pg/mL; in assay [4] (peptide 50 μg/ml), 1490 ± 715 pg/mL.
